The source made the active and inactive calls. The calls are words filed in the database; no cut-off is given here.
Columns and labels:
[1] = molecular target: T1, Nuclear factor erythroid 2-related factor 2 (Mus musculus) (UniProt Q60795); test: Activation of Nrf2 in mouse Hepa1c1c7 cells assessed as increase in NQO1 activity at 0.4 uM; assay type: cell-based; conditions: filed as activator
T1 sequence (whole entry): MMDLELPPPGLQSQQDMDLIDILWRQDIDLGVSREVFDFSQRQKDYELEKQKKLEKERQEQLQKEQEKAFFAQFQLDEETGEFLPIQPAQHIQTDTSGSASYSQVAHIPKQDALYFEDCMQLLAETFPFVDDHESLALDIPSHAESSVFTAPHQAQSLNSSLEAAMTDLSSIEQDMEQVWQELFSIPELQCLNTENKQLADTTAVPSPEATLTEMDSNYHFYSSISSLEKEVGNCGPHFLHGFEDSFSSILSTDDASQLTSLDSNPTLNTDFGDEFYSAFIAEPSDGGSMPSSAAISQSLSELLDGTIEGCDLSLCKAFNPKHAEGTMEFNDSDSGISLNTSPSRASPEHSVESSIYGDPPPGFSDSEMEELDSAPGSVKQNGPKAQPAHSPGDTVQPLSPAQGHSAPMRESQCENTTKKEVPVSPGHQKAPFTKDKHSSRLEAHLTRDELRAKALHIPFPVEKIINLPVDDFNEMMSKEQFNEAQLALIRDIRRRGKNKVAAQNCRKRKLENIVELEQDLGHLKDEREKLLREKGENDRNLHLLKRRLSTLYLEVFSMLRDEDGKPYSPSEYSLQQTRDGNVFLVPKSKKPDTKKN

[2] = molecular target: T1, Nuclear factor erythroid 2-related factor 2 (Mus musculus); test: Activation of Nrf2 in mouse Hepa1c1c7 cells assessed as increase in NQO1 activity at 0.8 uM; assay type: cell-based; conditions: filed as activator
[3] = molecular target: T1, Nuclear factor erythroid 2-related factor 2 (Mus musculus); test: Activation of Nrf2 in mouse Hepa1c1c7 cells assessed as increase in NQO1 activity at 1.6 uM; assay type: cell-based; conditions: filed as activator
[4] = molecular target: T1, Nuclear factor erythroid 2-related factor 2 (Mus musculus); test: Activation of Nrf2 in mouse Hepa1c1c7 cells assessed as increase in NQO1 activity at 3.125 uM; assay type: cell-based; conditions: filed as activator
[5] = molecular target: T1, Nuclear factor erythroid 2-related factor 2 (Mus musculus); test: Activation of Nrf2 in mouse Hepa1c1c7 cells assessed as increase in NQO1 activity at 6.25 uM; assay type: cell-based; conditions: filed as activator
[6] = molecular target: T1, Nuclear factor erythroid 2-related factor 2 (Mus musculus); test: Activation of Nrf2 in mouse Hepa1c1c7 cells assessed as increase in NQO1 activity at 12.5 uM; assay type: cell-based; conditions: filed as activator
[7] = molecular target: T1, Nuclear factor erythroid 2-related factor 2 (Mus musculus); test: Activation of Nrf2 in mouse Hepa1c1c7 cells assessed as increase in NQO1 activity at 25 uM; assay type: cell-based; conditions: filed as activator
[8] = molecular target: T1, Nuclear factor erythroid 2-related factor 2 (Mus musculus); test: Activation of Nrf2 in mouse Hepa1c1c7 cells assessed as increase in NQO1 activity at 50 uM; assay type: cell-based; conditions: filed as activator
[9] = molecular target: T1, Nuclear factor erythroid 2-related factor 2 (Mus musculus); test: Activation of Nrf2 in mouse Hepa1c1c7 cells assessed as concentration required to double induction to increase in NQO1 activity; assay type: cell-based; conditions: filed as activator
[10] = Antioxidant activity assessed as DPPH radical scavenging activity; assay type: functional
[11] = Toxicity in albino mouse assessed as lethality; conditions: in vivo
Mus musculus [12] = test: Radioprotective activity in albino mouse assessed as RBC level at 50 mg/kg, ip administered for 5 days and on day 5 irradiated with gamma radiation and measured after 3 days (reference value: 5.89 +/- 0.27 10^6/UL); assay type: functional; conditions: time 8 day
Mus musculus [13] = test: Radioprotective activity in albino mouse assessed as WBC level at 50 mg/kg, ip administered for 5 days and on day 5 irradiated with gamma radiation and measured after 3 days (reference value: 0.40 +/- 0.03 10^3/UL); assay type: functional; conditions: time 8 day
Mus musculus [14] = test: Radioprotective activity in albino mouse assessed as HGB level at 50 mg/kg, ip administered for 5 days and on day 5 irradiated with gamma radiation and measured after 3 days (reference value: 7.98 +/- 0.24 g/dL); assay type: functional; conditions: time 8 day
Mus musculus [15] = test: Radioprotective activity in albino mouse assessed as HCT level at 50 mg/kg, ip administered for 5 days and on day 5 irradiated with gamma radiation and measured after 3 days (reference value: 23.05 +/- 0.98 %); assay type: functional; conditions: time 8 day
Mus musculus [16] = test: Radioprotective activity in albino mouse assessed as PLT level at 50 mg/kg, ip administered for 5 days and on day 5 irradiated with gamma radiation and measured after 3 days (reference value: 500.3 +/- 49.73 10^3/UL); assay type: functional; conditions: time 8 day
Mus musculus [17] = test: Radioprotective activity in albino mouse assessed as Nrf2 level at 50 mg/kg, ip administered for 5 days and on day 5 irradiated with gamma radiation and measured after 3 days (reference value: 23 %); assay type: functional; conditions: time 8 day
Mus musculus [18] = test: Radioprotective activity in albino mouse assessed as NQO1 level at 50 mg/kg, ip administered for 5 days and on day 5 irradiated with gamma radiation and measured after 3 days (reference value: 192 %); assay type: functional; conditions: time 8 day
Mus musculus [19] = test: Radioprotective activity in albino mouse assessed as ROS level at 50 mg/kg, ip administered for 5 days and on day 5 irradiated with gamma radiation and measured after 3 days (reference value: 39 %); assay type: functional; conditions: time 8 day
Mus musculus [20] = test: Radioprotective activity in albino mouse assessed as MDA level at 50 mg/kg, ip administered for 5 days and on day 5 irradiated with gamma radiation and measured after 3 days (reference value: 86 %); assay type: functional; conditions: time 8 day
[21] = Toxicity in albino mouse assessed as effect on liver weight at 50 mg/kg, ip administered for 5 days; assay type: organism-based; conditions: in vivo, 120 h, time 5 day
[22] = Effect on RBC level in albino mouse at 50 mg/kg, ip administered for 5 days (reference value: 7.17 +/- 0.15 10^6/UL); assay type: functional; conditions: time 5 day
[23] = Effect on WBC level in albino mouse at 50 mg/kg, ip administered for 5 days (reference value: 2.54 +/- 0.16 10^3/UL); assay type: functional; conditions: time 5 day
[24] = Effect on HGB level in albino mouse at 50 mg/kg, ip administered for 5 days (reference value: 10.75 +/- 0.63 g/dL); assay type: functional; conditions: time 5 day
[25] = Effect on HCT level in albino mouse at 50 mg/kg, ip administered for 5 days (reference value: 33.45 +/- 1.82 %); assay type: functional; conditions: time 5 day
Mus musculus [26] = test: Radioprotective activity in albino mouse assessed as organism survival rate at 50 mg/kg, ip administered for 5 days and on day 5 irradiated with gamma radiation and measured after 3 days; assay type: functional, organism-based; conditions: time 8.0 day
Mus musculus [27] = test: Radioprotective activity in albino mouse assessed as effect on body weight at 50 mg/kg, ip administered for 5 days and on day 5 irradiated with gamma radiation and measured after 3 days; assay type: functional, organism-based; conditions: time 8.0 day
[28] = Effect on PLT level in albino mouse at 50 mg/kg, ip administered for 5 days (reference value: 1135 +/- 91.52 10^3/UL); assay type: functional; conditions: time 5 day

Compound: NS(=O)(=O)c1ccc(-n2c(SCC(=O)Nc3cccnc3Cl)nc3c(I)cc(I)cc3c2=O)cc1
- Activity [1]: 0.99
- Activity [2]: 0.98
- Activity [3]: 1
- Activity [4]: 1.09
- Activity [5]: 1.17
- Activity [6]: 1.38
- Activity [7]: 2.13
- Activity [8]: 2.65
- CD [9]: 25 µM
- IC50 [10]: 28 µM
- LD50 [11]: 500 mg/kg
- Activity (Mus musculus [12]): 6.37 10^6 /uL
- Activity (Mus musculus [13]): 1.34 10^3 /uL
- Activity (Mus musculus [14]): 9.9 g/dL
- Activity (Mus musculus [15]): 25.83%
- Activity (Mus musculus [16]): 956.8 10^3 /uL
- Activity (Mus musculus [17]): 15%
- Activity (Mus musculus [18]): 37%
- Activity (Mus musculus [19]): 23%
- Activity (Mus musculus [20]): 32%
- Activity [21]: Non-Toxic
- Activity [22]: 6.13 10^6 /uL
- Activity [23]: 2.08 10^3 /uL
- Activity [24]: 8.54 g/dL
- Activity [25]: 26.86%
- Activity (Mus musculus [26]): Active
- Activity (Mus musculus [27]): Active
- Activity [28]: 1030 10^3 /uL

Reference: ChEMBL document CHEMBL4819062, “Novel iodinated quinazolinones bearing sulfonamide as new scaffold targeting radiation induced oxidative stress” (Bioorg Med Chem Lett, 2021)
